Results published in patent publication US20260049089A1, “KRAS INHIBITOR COMPOUND” (SHANGHAI APEIRON THERAPEUTICS COMPANY LIMITED, priority 2022, published 2026).
pIC50: −log10 of the molar value. Where “and” joins values, the source holds several entries; their conditions need not be identical. Equal values may be shown once. Read-outs that look alike come from different tables or passages of the source.

Legend:
Format in all cases: cell-based
[1] = tested on: pERK in AGS cells; assay: ERK phosphorylation cell assay, AGS; details: 3 hours compound incubation, read-out: pERK AGS_IC50
Description: (§1) • Day 1: AGS cells were seeded into a 384-well cell culture plate and incubated overnight at 37° C. with 5% CO2 in a cell culture incubator. • Day 2: Compounds were added to the plate using an Echo550 liquid handler, followed by incubation at 37° C. with 5% CO2 in a cell culture incubator for 3 hours. Subsequently, the cells were fixed with paraformaldehyde, permeabilized with methanol, and blocked with blocking buffer. A primary antibody mixture (rabbit anti-pERK, mouse anti-GAPDH) was added, and the plate was incubated overnight at 4° C. • Day 3: The primary antibodies were removed, and a secondary antibody mixture (goat anti-rabbit 800CW, goat anti-mouse 680RD) was added. The plate was incubated at room temperature in the dark. After three washes with PBST, the plate was inverted and centrifuged for 1 minute. Fluorescence signal values were read using an Odyssey CLx imaging system.
(§2) [formula] • Negative control: DMSO • Positive control: 10 μM Reference • Fitted using XLFit 5.0 with the following parameters:
(§3) [formula] • X: Log of compound concentration • Y: Mean relative expression levels of p-ERK across replicates

[2] = tested on: AsPC-1 cells; assay: 3D cell proliferation assay (CellTiter-Glo 3D), AsPC-1; details: 5 days, read-out: 3D Proliferation Inhibition AsPC-1_IC50
Description: (§4) Using a nanoliter liquid handling system (LABCYTE, P-0200), the diluted test compounds were added to a 384-well low-adsorption cell culture plate. Cells were seeded into the wells, and the plate was placed in an incubator at 37° C. with 5% CO2. After co-incubating the compounds and cells for 5 days, CellTiter-Glo® 3D reagent was added. Luminescence values were measured using an EnVision Multilabel Plate Reader (luminescence is proportional to the ATP content in the system, and ATP content directly reflects the number of viable cells). Finally, the IC50 values (half-maximal inhibitory concentrations) of the compounds were determined using non-linear fitting equations in XLFit software with the following parameters: […]
(§5) X: Logarithm of compound concentration • Y: Inhibition rate (%)
(§6) [formula] • Negative control: DMSO • Positive control: Medium only

[3] = tested on: pERK in AsPC-1 cells; assay: ERK phosphorylation cell assay, AsPC-1; details: read-out: pERK AsPC-1_IC50
Description: [Worded in the source for another cell line; this cell line is reported under the same test.] as §1, §2, §3

[4] = tested on: AGS cells; assay: 3D cell proliferation assay (CellTiter-Glo 3D), AGS; details: 5 days, read-out: 3D Proliferation Inhibition AGS_IC50
Description: as §4, §5, §6

[5] = Homo sapiens, ASPC1, AsPC-1 cells

SMILES	pIC50 ([1]; Homo sapiens, AGS, 3 h)	pIC50 ([2]; Homo sapiens, ASPC1, 120 h)	pIC50 [3, 5]	pIC50 ([4]; Homo sapiens, AGS, 120 h)	pIC50 [1]	other results
C=C1CN2CCCC2(COc2nc(N3CCC[C@@](C)(O)C3)c3cc4c(c(F)c3n2)-c2cc(O)cc3ccc(F)c(c23)CCOCCN4C)C1 (some centres unmarked) [Example 48]	8.48	7.38	7.77	8.13		
CN1CCOCCc2c(F)ccc3cc(O)cc(c23)-c2c1cc1c(N3CCC[C@@](C)(O)C3)nc(OC[C@@]34CCCN3C[C@H](F)C4)nc1c2F [Example 47, 3,15-difluoro-13-(((2R,7aS)-2-fluorotetrahydro-1H-pyrazin-7a(5H)-yl)methoxy)-11-((R)-3-hydroxy-3-methylpiperidin-1-yl)-9-methyl-4,5,8,9-tetrahydro-7H-naphtho[1′,8′:7,8,9][1]oxa[4]azacycloundeca[5,6-g]quinazoline-17-ol]					8.57	pIC50 [2]: 7.55; pIC50 ([3]; AsPC-1 cells): 8.10; pIC50 [4]: 8.06
C=C1CN2CCCC2(COc2nc(N3CCC[C@@](C)(O)C3)c3cc4c(c(F)c3n2)-c2cc(O)cc3ccc(F)c(c23)CCCCCN4)C1 (some centres unmarked) [Example 25]		6.47		6.95		
[2H]C([2H])([2H])N1CCOCCc2c(F)ccc3cc(O)cc(c23)-c2c1cc1c(N3CCC[C@@](C)(O)C3)nc(OC[C@@]34CCCN3C[C@H](F)C4)nc1c2F [Example 46, 3,15-difluoro-13-(((2R,7aS)-2-fluorotetrahydro-1H-pyrazin-7a(5H)-yl)methoxy)-11-((R)-3-hydroxy-3-methylpiperidin-1-yl)-9-(trideuteromethyl)-4,5,8,9-tetrahydro-7H-naphtho[1′,8′:7,8,9][1]oxa[4]azacycloundeca[5,6-g]quinazoline-17-ol]	8.24	7.52	7.96	7.92		
C[C@H](Oc1nc(N2CCC[C@@](C)(O)C2)c2cc3c(c(F)c2n1)-c1cc(O)cc2ccc(F)c(c12)CCCCCN3)[C@@H]1CCCN1C [Example 35, 3,15-Difluoro-11-((R)-3-hydroxy-3-methylpiperidin-1-yl)-13-((S)-1-((S)-1-methylpyrrolidin-2-yl)ethoxy)-4,5,6,7,8,9-hexahydro-naphtho[1′,8′:4,5,6][1]azacycloundecino[2,3-g]quinazoline-17-ol]	5.34	5.55	< 5.00	5.57		
Oc1cc2c3c(c(F)ccc3c1)CCCCCCNc1cc3c(N4CC5CCC(C4)N5)nc(OC[C@@]45CCCN4C[C@H](F)C5)nc3c(F)c1-2 [Example 8]	7.14	6.17	6.56	6.59		
C[C@@]1(O)CCCN(c2nc(OCC34CCCN3C[C@]3(C4)CC3(F)F)nc3c(F)c4c(cc23)NCCCCCc2c(F)ccc3cc(O)cc-4c23)C1 (single isomer, unassigned) [Example 24A]		6.07		6.29	7.04	pIC50 ([3]; AsPC-1 cells): 6.45
C[C@@]1(O)CCCN(c2nc(OCC34CCCN3CCC4)nc3c(F)c4c(cc23)NCCCCCc2c(F)ccc3cc(O)cc-4c23)C1 (single isomer, unassigned) [Example 21A]		5.58		6.65	7.03 and 7.00	pIC50 ([3]; AsPC-1 cells): 6.03 and 6.14
C=C1CN2CCCC2(COc2nc(N3CCC[C@@](C)(O)C3)c3cc4c(c(F)c3n2)-c2cc(N)cc3ccc(F)c(c23)CCCCCN4)C1 (stereo partly drawn) [Example 40, (3R)-1-(17-amino-3,15-difluoro-13-((2-methylenetetrahydro-1H-pyrazin-7a(5H)-yl)methoxy)-4,5,6,7,8,9-hexahydronaphtho[1′,8′:4,5,6][1]azacycloundecano[2,3-g]quinazolin-11-yl)-3-methylpiperidin-3-ol]	5.04	5.66	< 5.00	5.69		
C[C@@]1(O)CCCN(c2nc(OCC34CCCN3CC(=CF)C4)nc3c(F)c4c(cc23)NCCCCCc2c(F)ccc3cc(O)cc-4c23)C1 (some centres unmarked) [Example 30]	7.26	6.27	6.77	6.75		
C=C1CN2CCC[C@@]2(COc2nc(N3CCC[C@@](C)(O)C3)c3cc4c(c(F)c3n2)-c2cc(O)cc3ccc(F)c(c23)CCOCCN4)C1 (single isomer, unassigned) [Example 42D]					8.66	pIC50 [2]: 7.41; pIC50 ([3]; AsPC-1 cells): 7.92; pIC50 [4]: 8.23
O=C1CCCCc2c(F)ccc3cc(O)cc(c23)-c2c(cc3c(N4CC5CCC(C4)N5)nc(OC[C@@]45CCCN4C[C@H](F)C5)nc3c2F)N1 [Example 4]	6.48	5.31		6.07		
CN1CCCCCc2c(F)ccc3cc(O)cc(c23)-c2c1cc1c(N3CCC[C@@](C)(O)C3)nc(OC[C@@]34CCCN3C[C@H](F)C4)nc1c2F (single isomer, unassigned) [Example 6B]					6.35	pIC50 [2]: 5.86; pIC50 [4]: 5.98
C=C1CN2CCCC2(COc2nc(N3CCC[C@@](C)(O)C3)c3cc4c(c(F)c3n2)-c2cc(O)cc3ccc(F)c(c23)CCCCCN4S(C)(=O)=O)C1 (stereo partly drawn) [Example 45, 3,15-difluoro-11-((R)-3-hydroxy-3-methylpiperidin-1-yl)-13-((2-methylenetetrahydro-1H-pyrazin-7a(5H)-yl)methoxy)-9-(methylsulfonyl)-4,5,6,7,8,9-hexahydronaphtho[1′,8′:4,5,6][1]azacycloundecano[2,3-g]quinazolin-17-ol]	5.47	5.39		5.49		
C=C1CN2CCCC2(COc2nc(N3CCC[C@@](C)(O)C3)c3cc4c(c(F)c3n2)-c2cc(O)cc3ccc(F)c(c23)CCCCCN4C(C)=O)C1 (stereo partly drawn) [Example 44, 1-(3,15-Difluoro-17-hydroxy-11-((R)-3-hydroxy-3-methylpiperidin-1-yl)-13-((2-methylene-tetrahydro-1H-pyrazin-7a(5H)-yl)methoxy)-5,6,7,8-tetrahydronaphtho[1′,8′:4,5,6][1]azacycloundecino[2,3-g]quinazolin-9(4H)-yl)ethan-1-one]		5.41				pIC50 ([1]; Homo sapiens): 6.31; pIC50 ([4]; Homo sapiens, 120 h): 5.73
CN1CCCCCc2c(F)ccc3cc(O)cc(c23)-c2c1cc1c(N3CCC[C@@](C)(O)C3)nc(OC[C@@]34CCCN3C[C@H](F)C4)nc1c2F (single isomer, unassigned) [Example 6A]					7.52	pIC50 [2]: 6.69; pIC50 [4]: 6.90
[2H]C([2H])([2H])N1C(=O)CCCCc2c(F)ccc3cc(O)cc(c23)-c2c1cc1c(N3CCC[C@@](C)(O)C3)nc(OC[C@@]34CCCN3C[C@H](F)C4)nc1c2F [Example 41, 3,15-Difluoro-13-(((2R,7aS)-2-fluoro-tetrahydro-1H-pyrazin-7a(5H)-yl)methoxy)-17-hydroxy-11-((R)-3-hydroxy-3-methylpiperidin-1-yl)-9-(trideuteromethyl)-4,5,6,7-tetrahydronaphtho[1′,8′:4,5,6][1]azacycloundecino[2,3-g]quinazolin-8(9H)-one]	6.51		5.55			
O=C1CCCc2c(F)ccc3cc(O)cc(c23)-c2c(cc3c(N4CC5CCC(C4)N5)nc(OC[C@@]45CCCN4C[C@H](F)C5)nc3c2F)N1 [Example 1, 10-((1R,5S)-3,8-Diazabicyclo[3.2.1]octan-3-yl)-3,14-difluoro-12-(((2R,7aS)-2-fluorotetrahydro-1H-pyrazin-7a(5H)-yl)methoxy)-16-hydroxy-5,6-dihydro-4H-naphtho[1′,8′:4,5,6]acridin[2,3-g]quinazolin-7(8H)-one]	5.67		5.61			
CC1(O)CCCN(c2nc(OCC(F)(F)F)nc3c(F)c4c(cc23)NCCCCCc2c(F)ccc3cc(O)cc-4c23)C1 [Example 17B, (R)-3,15-difluoro-11-(3-hydroxy-3-methylpiperidin-1-yl)-13-(2,2,2-trifluoroethoxy)-4,5,6,7,8,9-hexahydro-naphtho[1′,8′:4,5,6111]azacycloundecino[2,3-g]quinazoline-17-ol]					< 5.00	pIC50 ([3]; AsPC-1 cells): < 5.00
COC12CCC(COc3nc(N4CCC[C@@](C)(O)C4)c4cc5c(c(F)c4n3)-c3cc(O)cc4ccc(F)c(c34)CCCCCN5)(CC1)CC2 [Example 20A]	< 5.00		< 5.00			
C[C@@]1(O)CCCN(c2nc(OCC34CCCN3CCC4)nc3c(F)c4c(cc23)NCCCCCc2c(F)ccc3cccc-4c23)C1 [Example 7, (R)-1-(3,15-Difluoro-13-((tetrahydro-1H-pyrazin-7a(5H)-yl)methoxy)-4,5,6,7,8,9-hexahydronaphtho[1′,8′:4,5,6]azecino[2,3-g]quinazolin-11-yl)-3-methylpiperidin-3-ol]	5.46	5.54		5.64		
